Measurements taken from PubChem BioAssay (NCI).
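Test compounds were applied to cells in 96-well plates for 48 hours at 5 doses. At the GI50, growth is halved. The concentration for full growth arrest is given as TGI.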

Key:
Assay in all cases: inhibition of tumour cell growth, NCI panel, 48 h
[1] = test system: CAKI-1 renal
[2] = test system: EKVX NSCLC
[3] = test system: NCI-H23 lung
[4] = test system: OVCAR-3 ovarian
[5] = test system: OVCAR-5 ovarian
[6] = test system: RPMI-8226 leukemia
[7] = test system: SF-268 CNS
[8] = test system: SK-MEL-2 melanoma
[9] = test system: SK-MEL-28 melanoma
[10] = test system: SNB-19 CNS

CCOC(=O)C1=C(C)NC2SC(=O)/C(=C\c3cccc(Cl)c3)N2C1c1ccccc1 (configuration not stated) showed a GI50 [1] of over 100 µM, a TGI [1] of over 100 µM and a GI50 [2] of over 100 µM. It also gave a TGI [2] of over 100 µM, a GI50 [3] of over 100 µM and a TGI [3] of over 100 µM. For the same molecule, the GI50 [4] was over 100 µM, the TGI [4] was over 100 µM and the GI50 [5] was over 100 µM. It also gave a TGI [5] of over 100 µM, a GI50 [6] of over 100 µM and a TGI [6] of over 100 µM. The GI50 [7] was over 100 µM, the TGI [7] was over 100 µM and the GI50 [8] was over 100 µM. It also gave a TGI [8] of over 100 µM, a GI50 [9] of over 100 µM and a TGI [9] of over 100 µM. For the same molecule, the GI50 [10] was over 100 µM and the TGI [10] was over 100 µM.
COc1cc(-c2oc3c(OC)c(O)c(OC)c(O)c3c(=O)c2OC)cc(OC)c1OC gave a TGI [1] of over 100 µM, a TGI [2] of over 100 µM and a TGI [3] of over 100 µM. The TGI [4] was 95.9 µM, the TGI [5] was over 100 µM and the TGI [6] was over 100 µM. For the same molecule, the TGI [7] was 71.5 µM, the TGI [8] was over 100 µM and the TGI [9] was over 100 µM. It also gave a TGI [10] of over 100 µM.
CC(C)[C@@]12C[C@@H](OC(=O)COC(=O)c3ccccc3)[C@@](C)(O1)[C@@H]1CC[C@@H](C)[C@H]1[C@@H]2OC(=O)/C=C/c1ccccc1 gave a GI50 [1] of 0.0812 µM, a TGI [1] of 2.87 µM and a GI50 [2] of over 100 µM. The TGI [2] was over 100 µM, the GI50 [3] was over 100 µM and the TGI [3] was over 100 µM. The GI50 [4] was over 100 µM, the TGI [4] was over 100 µM and the GI50 [5] was over 100 µM. For the same molecule, the TGI [5] was over 100 µM, the GI50 [6] was 82.1 µM and the TGI [6] was over 100 µM. For the same molecule, the TGI [7] was over 100 µM, the GI50 [8] was over 100 µM and the TGI [8] was over 100 µM. The GI50 [9] was over 100 µM, the TGI [9] was over 100 µM and the GI50 [10] was over 100 µM. For the same molecule, the TGI [10] was over 100 µM.
Work on CCCCCc1cc(/C=C2/N=C(c3ccc[nH]3)C=C2OC)[nH]c1C yielded a TGI [1] of 0.0168 µM, a TGI [2] of 1.4 µM and a TGI [3] of 0.346 µM. For the same molecule, the TGI [4] was 0.469 µM, the TGI [5] was 1.26 µM and the TGI [7] was 1.13 µM. For the same molecule, the TGI [9] was 0.805 µM and the TGI [10] was 1.5 µM.
With Cc1cc(O)ccc1C1(c2ccc(O)cc2C)OC(=O)c2ccccc21 the GI50 [1] was 16 µM, the TGI [1] was 30.1 µM and the GI50 [2] was 14.9 µM. For the same molecule, the TGI [2] was 31 µM, the GI50 [3] was 16.6 µM and the TGI [3] was 33.4 µM. The GI50 [4] was 16.4 µM, the TGI [4] was 30.1 µM and the GI50 [5] was 16 µM. For the same molecule, the TGI [5] was 32.9 µM, the GI50 [6] was 28.1 µM and the TGI [6] was 78.7 µM. The GI50 [7] was 19 µM, the TGI [7] was 43.9 µM and the GI50 [8] was 18.4 µM. For the same molecule, the TGI [8] was 33.8 µM, the GI50 [9] was 17.3 µM and the TGI [9] was 35.4 µM. It also gave a GI50 [10] of 18.7 µM and a TGI [10] of 35.2 µM.
Work on Cc1[nH]c(C(=O)Nc2cccc(OC3CCNCC3)c2)c(Cl)c1Cl yielded a GI50 [1] of 1.82 µM, a TGI [1] of 3.39 µM and a GI50 [2] of 1.57 µM. It also gave a TGI [2] of 3.39 µM, a GI50 [3] of 2.14 µM and a TGI [3] of 5.54 µM. The GI50 [4] was 1.97 µM, the TGI [4] was 4.01 µM and the GI50 [5] was 1.63 µM. It also gave a TGI [5] of 3.11 µM, a GI50 [6] of 2.05 µM and a TGI [6] of 4.59 µM. It also gave a GI50 [7] of 1.77 µM, a TGI [7] of 3.75 µM and a GI50 [8] of 2.14 µM. For the same molecule, the TGI [8] was 4.54 µM, the GI50 [9] was 1.64 µM and the TGI [9] was 3.07 µM. It also gave a GI50 [10] of 2.11 µM and a TGI [10] of 5.18 µM.
C#CN1C(=O)c2c(c(-c3ccccc3)c(-c3ccc(Oc4ccc(-c5c(-c6ccccc6)c6c(c(-c7ccccc7)c5-c5ccccc5)C(=O)N(C#C)C6=O)cc4)cc3)c(-c3ccccc3)c2-c2ccccc2)C1=O showed a TGI [2] of over 100 µM, a TGI [3] of over 100 µM and a TGI [4] of over 100 µM. The TGI [5] was over 100 µM, the TGI [6] was over 100 µM and the TGI [7] was over 100 µM. The TGI [8] was over 100 µM, the TGI [9] was over 100 µM and the TGI [10] was over 100 µM.
Cc1cc(S(=O)(=O)Nc2nc3ccccc3c(=O)n2Cc2ccco2)c(S)cc1Cl was tested, and the GI50 [1] was 44.1 µM, the TGI [1] was over 100 µM and the GI50 [2] was 22.8 µM. The TGI [2] was 70.6 µM, the GI50 [3] was 46 µM and the TGI [3] was over 100 µM. It also gave a GI50 [4] of 30.5 µM, a TGI [4] of over 100 µM and a GI50 [5] of 60.4 µM. For the same molecule, the TGI [5] was over 100 µM, the GI50 [6] was 27 µM and the TGI [6] was over 100 µM. It also gave a GI50 [7] of 40.6 µM, a TGI [7] of over 100 µM and a GI50 [9] of 34.8 µM. For the same molecule, the TGI [9] was over 100 µM and the TGI [10] was over 100 µM.
Molecule COc1ccc(OC(=O)N2C/C(=C\c3ccccc3)C(=O)/C(=C/c3ccccc3)C2)cc1 has a TGI [2] of 58.3 µM, a TGI [3] of 17.1 µM and a TGI [4] of 13.1 µM. It also gave a TGI [5] of 27.1 µM, a TGI [6] of 0.172 µM and a TGI [7] of 15.2 µM. The TGI [8] was 45.6 µM, the TGI [9] was 4.97 µM and the TGI [10] was 16.6 µM.
In the case of N#CC1=C(N)N=C(N2CCOCC2)C(C#N)C12Nc1ccccc1S2 (configuration not stated), the GI50 [1] is reported as 12.6 µM, the TGI [1] is reported as 44.4 µM and the GI50 [2] is reported as 1.7 µM. For the same molecule, the TGI [2] was 15.6 µM, the GI50 [4] was 20.1 µM and the TGI [4] was 58.1 µM. The GI50 [5] was 45.1 µM, the TGI [5] was over 100 µM and the GI50 [6] was 16 µM. For the same molecule, the TGI [6] was 88.5 µM, the GI50 [7] was 8.05 µM and the TGI [7] was 27.5 µM. For the same molecule, the GI50 [8] was 35.2 µM, the TGI [8] was 95 µM and the GI50 [10] was 33.8 µM. For the same molecule, the TGI [10] was over 100 µM.
C[C@@H](NC1CCCC[C@@H]1O)c1ccccc1 (some centres not stated) gave a TGI [1] of over 100 µM, a TGI [2] of over 100 µM and a TGI [4] of over 100 µM. For the same molecule, the TGI [5] was over 100 µM, the TGI [6] was over 100 µM and the TGI [8] was over 100 µM. It also gave a TGI [9] of over 100 µM and a TGI [10] of over 100 µM.
For c1cc[n+](Cc2c3ccccc3cc3c2ccc2ccccc23)cc1, the GI50 [2] was 19.5 µM, the TGI [2] was over 100 µM and the GI50 [3] was 1.71 µM. For the same molecule, the TGI [3] was 11.6 µM, the GI50 [4] was 2.6 µM and the TGI [4] was 11.4 µM. The GI50 [5] was 11.1 µM, the TGI [5] was 26.8 µM and the GI50 [6] was 2.31 µM. For the same molecule, the TGI [6] was 8.87 µM, the GI50 [7] was 1.13 µM and the TGI [7] was 5.48 µM. The GI50 [8] was 2.14 µM, the TGI [8] was 4.69 µM and the GI50 [9] was 2.11 µM. The TGI [9] was 5.5 µM, the GI50 [10] was 1.18 µM and the TGI [10] was 7.85 µM.
Work on CC(=O)OCc1nnn2c1C(OC(C)=O)CC2 (configuration not stated) yielded a TGI [1] of over 100 µM, a TGI [2] of over 100 µM and a TGI [3] of over 100 µM. It also gave a TGI [4] of over 100 µM, a TGI [5] of over 100 µM and a TGI [6] of over 100 µM. For the same molecule, the TGI [8] was over 100 µM, the TGI [9] was over 100 µM and the TGI [10] was over 100 µM.
For COc1ccc2nc3cc([N+](=O)[O-])ccc3c(NCCO)c2c1, the GI50 [1] was 10.1 µM, the TGI [1] was 30 µM and the GI50 [2] was 24.4 µM. For the same molecule, the GI50 [3] was 2.68 µM, the TGI [3] was 9.59 µM and the GI50 [4] was 2.41 µM. It also gave a TGI [4] of 10.2 µM, a GI50 [5] of 5.55 µM and a TGI [5] of 28.1 µM. It also gave a GI50 [6] of 1.39 µM, a TGI [6] of 7.16 µM and a GI50 [7] of 1.15 µM. For the same molecule, the TGI [7] was 11.5 µM, the GI50 [9] was 5.41 µM and the GI50 [10] was 2.96 µM. The TGI [10] was 11.5 µM.
In the case of CC(=O)OC(C(=O)[O][Ge]([CH3])([CH3])[CH3])c1ccccc1 (configuration not stated), the GI50 [1] is reported as over 100 µM, the TGI [1] is reported as over 100 µM and the GI50 [2] is reported as over 100 µM. The TGI [2] was over 100 µM, the GI50 [3] was over 100 µM and the TGI [3] was over 100 µM. The GI50 [4] was over 100 µM, the TGI [4] was over 100 µM and the GI50 [5] was over 100 µM. The TGI [5] was over 100 µM, the GI50 [7] was over 100 µM and the TGI [7] was over 100 µM. The GI50 [9] was over 100 µM, the TGI [9] was over 100 µM and the GI50 [10] was over 100 µM. For the same molecule, the TGI [10] was over 100 µM.
O=C1NC(c2ccc3ccccc3c2)Nc2ccccc21 (configuration not stated) gave a TGI [1] of over 100 µM, a TGI [2] of over 100 µM and a TGI [3] of over 100 µM. The TGI [6] was 69.8 µM, the TGI [7] was over 100 µM and the TGI [8] was over 100 µM. The TGI [9] was over 100 µM and the TGI [10] was over 100 µM.
With CCOC(=O)C(C(=O)OCC)=C1C=C(c2ccccc2)c2ccccc21 the TGI [2] was over 100 µM, the TGI [3] was over 100 µM and the TGI [4] was over 100 µM. The TGI [5] was over 100 µM, the TGI [6] was 89.4 µM and the TGI [7] was over 100 µM. The TGI [8] was over 100 µM, the TGI [9] was over 100 µM and the TGI [10] was over 100 µM.
